Experimental data published in patent publication US12497411B2, “Muscarinic acetylcholine receptor subtype 4 antagonists in the treatment of anemia” (COLD SPRING HARBOR LABORATORY, priority 2019, dated 2025).

Tests used:
[1] = molecular target: T1, human recombinant CHRM2 receptor (Homo sapiens, UniProt P08172); assay: Radioligand binding assay, CHRM2; settings: [3H]AF-DX 384 (2 nM), CHO cell membranes, 60 minutes at room temperature; read-out: Ki M2
T1 construct: expressed in transfected cells; host or cells: CHO cells (membranes)
T1 sequence (P08172 1-466): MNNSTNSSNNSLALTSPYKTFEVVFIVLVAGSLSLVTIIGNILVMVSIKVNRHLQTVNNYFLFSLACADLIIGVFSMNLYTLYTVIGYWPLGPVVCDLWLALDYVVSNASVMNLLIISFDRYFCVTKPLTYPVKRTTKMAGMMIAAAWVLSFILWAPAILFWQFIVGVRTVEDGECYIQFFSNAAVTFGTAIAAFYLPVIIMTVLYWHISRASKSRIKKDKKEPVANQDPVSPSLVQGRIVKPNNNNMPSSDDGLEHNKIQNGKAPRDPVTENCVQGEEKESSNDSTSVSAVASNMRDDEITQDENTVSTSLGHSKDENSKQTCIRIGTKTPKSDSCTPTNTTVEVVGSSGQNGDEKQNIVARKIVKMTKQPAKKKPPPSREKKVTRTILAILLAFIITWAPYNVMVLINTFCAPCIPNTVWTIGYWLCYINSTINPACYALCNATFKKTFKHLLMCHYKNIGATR
In short: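 Membranes from CHO cells expressing each human recombinant receptor; radioligands [^3H]pirenzepine (2 nM) for CHRM1, [^3H]AF-DX 384 (2 nM) for CHRM2, [^3H]4-DAMP at 0.2 nM for CHRM3 and 0.3 nM for CHRM5. Compounds at 1×10^−9 to 1×10^−5 M; 60 min, room temperature. Percent inhibition of radioligand binding; Ki determined.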

CHRM4 [2] = molecular target: T2, CHRM4 (Homo sapiens, UniProt P08173); assay: Radioligand binding assay, CHRM4; set-up: expressed in transfected cells; host or cells: CHO cells (membranes); settings: [3H]4-DAMP (0.2 nM), CHO cell membranes, 60 minutes at room temperature; read-out: Ki M4
T2 sequence (P08173 1-479): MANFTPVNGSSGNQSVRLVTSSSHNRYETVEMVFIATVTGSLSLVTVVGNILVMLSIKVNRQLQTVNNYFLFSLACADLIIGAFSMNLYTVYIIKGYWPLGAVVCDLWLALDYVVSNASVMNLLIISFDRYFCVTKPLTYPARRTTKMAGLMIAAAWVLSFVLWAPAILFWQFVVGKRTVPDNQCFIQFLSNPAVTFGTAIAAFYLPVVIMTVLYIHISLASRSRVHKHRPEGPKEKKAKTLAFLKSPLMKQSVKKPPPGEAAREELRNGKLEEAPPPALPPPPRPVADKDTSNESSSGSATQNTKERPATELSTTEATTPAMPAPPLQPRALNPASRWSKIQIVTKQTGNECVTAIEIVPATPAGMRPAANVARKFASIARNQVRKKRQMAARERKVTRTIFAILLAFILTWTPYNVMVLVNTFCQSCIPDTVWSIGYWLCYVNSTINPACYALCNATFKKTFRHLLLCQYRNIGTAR

CHRM4 [3] = molecular target: T2, CHRM4; settings: previous reports (Croy 2016; Böhme 2002); cited from earlier work
Mouse BFU-Es = assay: Primary mouse BFU-E culture assay (cell expansion); format: cell-based
Protocol: Primary mouse BFU-Es were isolated from mouse embryonic day 14.5 (E14.5) fetal liver and cultured in StemSpan serum-free expansion medium, and the numbers of cells formed were counted during culture. BFU-Es were infected with either viruses encoding control shRNA or viruses encoding shRNAs targeting Chrm4, and numbers of GFP+ cells formed during culture were counted. DMSO or 25 mg/kg oxyphenonium bromide was intraperitoneally injected into the hemolysis mouse model, Mx1-cre Srsf2 P95H/WT MDS mouse model, and aging mouse model. Complete blood count (CBC) was performed after compound injection. CREB ChIP-Seq was performed on BFU-Es after culture with 100 μM oxyphenonium bromide for 45 minutes. RNA-Seq was performed in BFU-Es after being cultured with DMSO or oxyphenonium bromide for 3 days.
BFU-Es were isolated from mouse embryonic day 14.5 fetal liver using fluorescence-activated cell sorting (FACS) method previously described (Flygare et al., Blood 117, 3435-3444 (2011)). BFU-Es were cultured in StemSpan SFEM II medium containing rmSCF (100 ng/ml), EPO (2 U/ml), rmIGF-1 (40 ng/ml), dexamethasone (1 nmol/ml or 10 nmol/ml), oxyphenonium bromide ([…]), and orphenadrine citrate (1 μmol/ml).
BFU-Es were isolated from mouse embryonic day 14.5 fetal liver using fluorescence-activated cell sorting (FACS) method. BFU-Es were cultured in StemSpan SFEM II medium containing rmSCF (100 ng/ml), EPO (2 U/ml), rmIGF-1 (40 ng/ml), dexamethasone (1 nM), together with either DMSO, PCS1055 (5 nM), or PD102807 (3 nM). Numbers of cell formed were counted during in vitro culture.
FIGS. 7 and 8 show the results of the primary BFU-E culture assay. […] Highly purified BFU-Es were isolated as lin-Ter-119-CD16/CD32-Sca-1-CD41-c-Kit+CD71/Cd24a^10% low population using the fluorescence-activated cell sorting (FACS) method. BFU-Es were cultured in medium containing rmSCF, EPO, and rmIGF-1, in the presence of PD102807 or Compounds A-K at indicated concentrations.

[4] = system: PHZ induced hemolytic anemia in C57bl/6 mice; assay: PHZ induced hemolytic anemia mouse model, CBC; format: in vivo; settings: 100 mg/kg oral once per day, CBC on day 6, vs DMSO control
Protocol: Animal experiments were conducted in the Cold Spring Harbor Laboratory Animal Shared Resource in accordance with Institutional Animal Care and Use Committee-approved procedures. 4-6 weeks old C57bl/6 mice, purchased from Jackson Laboratory and randomly distributed into compound and control treatment groups, were given through oral delivery of PCS1055 (50 mg/kg or 100 mg/kg) twice per day or PD102807 (50 mg/kg or 100 mg/kg) once per day everyday for 3 days. On day 3, mice were intraperitoneally injected with 60 mg/kg PHZ. Mice were then given through oral delivery of PD102807 (50 mg/kg or 100 mg/kg) once per day every day for 2 days. Peripheral blood samples were collected retro-orbitally on day 6 using heparinized capillary tubes in blood collection tubes with K2-EDTA. CBC was performed using Hemavet 950. […] C57bl/6 mice were injected with 60 mg/kg phenylhydrazine to induce hemolysis. Mice were delivered with either vehicle control or Compound A or B (30 mg/kg or 100 mg/kg). Peripheral blood samples were collected retro-orbitally using heparinized capillary tubes into blood collection tubes with K2-EDTA. Complete blood counting was performed using Hemavet 950. Hematocrit (HCT), red blood cell (RBC) and hemoglobin (Hb) values are shown. […] C57bl/6 mice were injected with 60 mg/kg phenylhydrazine to induce hemolysis. Mice were delivered with subcutaneous injection with either vehicle control or Compound B (1.5 mg/kg, 3 mg/kg, or 5 mg/kg) or I (0.5 mg/kg, 0.7 mg/kg, or 1 mg/kg). Peripheral blood samples were collected retro-orbitally using heparinized capillary tubes into blood collection tubes with K2-EDTA. Complete blood counting was performed using Hemavet 950. Hematocrit (HCT), red blood cell (RBC) and hemoglobin (Hb) values are shown.

[5] = molecular target: T3, human recombinant CHRM3 receptor (Homo sapiens, UniProt P20309); assay: Radioligand binding assay, CHRM3; settings: [3H]4-DAMP (0.2 nM), CHO cell membranes, 60 minutes at room temperature; read-out: Ki M3
T3 construct: expressed in transfected cells; host or cells: CHO cells (membranes)
Protocol: PD102807 and Compounds A-K at concentrations of 1×10^−9 M, 1×10^−8 M, 1×10^−7 M, 1×10^−6 M, and 1×10^−5 M were tested in standard binding assays with radioligands and cell membranes with receptors. Compound binding was calculated as a percent inhibition of the binding of a radioactively labeled ligand specific for each target, and the Ki values were determined. For CHRM1, the binding assay was performed using [^3H]pirenzepine (2 nM) as a radioligand and membranes of CHO cells with human recombinant CHRM1 receptor. The incubation time was 60 minutes at room temperature. For CHRM2, the binding assay was performed using [^3H]AF-DX 384 (2 nM) as a radioligand and membranes of CHO cells with human recombinant CHRM2 receptor. The incubation time was also 60 minutes at room temperature. For CHRM3, the binding assay was performed using [^3H]4-DAMP (0.2 nM) as a radioligand and membranes of CHO cells with human recombinant CHRM3 receptor. The incubation time was also 60 minutes at room temperature. For CHRM4, the binding assay was performed using [^3H]4-DAMP (0.2 nM) as a radioligand and membranes of CHO cells with human recombinant CHRM4 receptor. The incubation time was also 60 minutes at room temperature. For CHRM5, the binding assay was performed using [^3H]4-DAMP (0.3 nM) as a radioligand and membranes of CHO cells with human recombinant CHRM5 receptor. The incubation time was also 60 minutes at room temperature.

T3 sequence (P20309 whole entry): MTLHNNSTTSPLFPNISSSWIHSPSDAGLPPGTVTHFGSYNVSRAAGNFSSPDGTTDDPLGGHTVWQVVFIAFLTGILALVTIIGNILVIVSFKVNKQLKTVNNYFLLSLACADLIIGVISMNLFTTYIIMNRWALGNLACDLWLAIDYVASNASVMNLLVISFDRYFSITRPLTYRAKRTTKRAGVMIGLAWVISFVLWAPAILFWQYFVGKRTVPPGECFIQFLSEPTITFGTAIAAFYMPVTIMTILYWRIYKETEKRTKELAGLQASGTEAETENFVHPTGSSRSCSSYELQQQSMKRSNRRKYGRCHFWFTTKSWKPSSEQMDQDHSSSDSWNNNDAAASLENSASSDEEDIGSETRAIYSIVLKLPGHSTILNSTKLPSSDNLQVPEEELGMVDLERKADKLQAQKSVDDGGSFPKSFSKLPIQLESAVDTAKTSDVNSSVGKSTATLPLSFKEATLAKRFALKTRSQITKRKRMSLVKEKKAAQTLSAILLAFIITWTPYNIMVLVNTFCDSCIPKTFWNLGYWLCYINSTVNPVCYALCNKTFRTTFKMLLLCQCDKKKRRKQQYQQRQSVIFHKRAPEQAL

Ki [1]: 2500 nM
Ki (CHRM4 [2]): 5.1 nM
Ki [5]: 210 nM
SMILES: CCOC(=O)c1c(C)[nH]c2ccc3c(c12)CN1CCc2cc(OC)ccc2C1O3 (centres unmarked) [PD102807, reference compound]
selectivity for CHRM4 over other muscarinic acetylcholine receptor family members (CHRM4 [3]): selectively inhibits CHRM4
expansion of BFU-E cells in cell culture (Mouse BFU-Es; 3 nM PD102807): increase the expansion of BFU-E cells
BFU-E expansion, cell numbers at day 9 (Mouse BFU-Es; indicated concentrations, vs untreated): induce BFU-E expansion
HCT, PHZ-induced anemia [4]: significantly improved
RBC, PHZ-induced anemia [4]: significantly improved
